Data published in patent publication US7923204B2, “Forward mutation assay based on 5-fluorouracil resistance” (priority 2003, dated 2011).
Read-outs that look alike come from different tables or passages of the source.

Assays:
[1] = test system: sister chromatid exchange; settings: NTP Results Report 12 Aug. 2002; cited from earlier work
[2] = test system: FU100; settings: approximate, first dose with greater than 50% survival by optical density on Day 1
[3] = test system: FU100; settings: for Results (5-FU assay): FU100, 2 h exposure; for Lowest Positive Dose: lowest dose tested giving a positive response; for response in the 5-FU Assay (in words): text and figure legend (FIG. 6), with or without S9
Experimental: Briefly, in order to practice the disclosed mutation assay one-ml aliquots of exponentially growing bacteria are exposed to the test agent for two hours in the presence and absence of a metabolic activation system, such as a mammalian (i.e., rat, hamster or human) liver homogenate (S9-fraction or liver microsomal enzymes). The aliquots are then diluted, allowed to grow for 3 hours, and assessed for treatment-related toxicity/inhibition by optical density. The cultures are subsequently diluted a second time and grown overnight to permit full recovery from toxicity and to allow expression of the FU^R phenotype. Samples of the cultures are then plated in 384-well microtiter dishes in the presence of 2 μg/ml 5-FU and the pH-sensitive indicator bromcresol purple. Three days later positive wells containing FU^R colonies are detected by their yellow color and enumerated. Treated cultures are then compared to control plates to determine genotoxic activity.
For each mutation experiment, two frozen 1-ml aliquots of FU100 were quickly thawed in a 37° C. water bath, pelleted by centrifugation, washed to remove the DMSO, and suspended in 35 mL of MinE medium. The culture was shaken for approximately 1 hour at 37° C. until the optical density at 600 nm (OD600) reached the target density of 0.3. A 16-ml aliquot of culture was added to each of two 50-ml tubes containing 3.6 ml of a NADPH-generating system (5.6 mM glucose-6-phosphate, 4.5 mM NADP+, 5 mM sucrose, 110 mM Na2HPO4, 37 mM KCl, and 9 mM MgCl2) and either 0.4 ml rat liver S-9 or an equal volume of sodium phosphate buffer. Aliquots of these mixtures were distributed into three 12-well cluster dishes (one for exposure with S-9, one for exposure without S-9, one for controls with and without S-9), and exposed to test compounds as 1-ml aliquots for 2 hour as outlined in FIG. 1.
Following treatment, the 1-ml aliquots were transferred into 9 ml of warm MinE medium in a 50 ml tube and incubated at 37° C. on a rotary wheel for 3 hours. Next, 20 ml of medium was added to each culture tube and 0.25 ml aliquots were transferred to a 96-well plate for OD600 measurements to assess toxicity (OD Day 1). […] Bulk cultures were then incubated overnight in the dark at 30° C. to permit recovery from toxicity and to allow time for the test cells to express the FU^R phenotype.
The next day, OD600 was again assessed to adjust cell number plated on 5-FU plates (OD Day 2; 100 μl of the culture diluted with 150 μl MinE medium for OD600 measurements). For plating, a 35 μl aliquot of each culture was added to 31.4 mL of MinE medium with 2 μg/ml of 5-FU and 10 μg/ml of bromcresol purple. The mixture was then dispersed into a 384-well plate (75 μl/well) and placed at 37° C. for 3 days in a humidified incubator.
The data obtained for both survival (OD day 1), relative number of cells plated (OD day 2), and number of positive wells were imported into an Excel template.
Table 8 summarizes the criteria for positive result in 5-FU assay using the FU100 tester strain described and claimed herein. […] A positive compound was defined when two or more doses met the aforementioned criteria.

[4] = test system: chromosome aberrations; settings: NTP Results Report 12 Aug. 2002; cited from earlier work
[5] = test system: mouse lymphoma; settings: NTP Results Report 12 Aug. 2002; cited from earlier work
[6] = test system: Salmonella; settings: NTP Results Report 12 Aug. 2002 or cited reference (footnotes f, g, i, j); cited from earlier work
[7] = test system: micronucleus; settings: NTP Results Report 12 Aug. 2002; cited from earlier work
[8] = test system: TA100, TA1535; settings: TA100 or TA1535; plate incorporation or liquid suspension
From the text: As stated above, the Ames Salmonella his+ plate incorporation assay evaluates genotoxic activity (mutagenicity) of chemical compounds on a set of genetically modified bacterial tester strains that are auxotrophic for the amino acid histidine. In practice, the Ames Assay simultaneously evaluates the genotoxic activity of a potential mutagen on several different target genes. The standard Ames Assay utilizes several different tester strains, each with a distinct mutation (e.g., transition, frameshift etc.) in one of the genes comprising the histidine (his) biosynthetic operon. The his operon encodes enzymes required for the biosynthesis of the amino acid histidine. For example, strain TA98 contains the hisD3052 allele which is reverted by a frameshift mutation, while strain TA1535 contains the hisG46 allele which is reverted by transition and transversion mutations. More specifically, the Ames Assay evaluates the ability of a chemical agent to increase the rate of reversion of auxotrophic strains of Salmonella to prototrophy.

[9] = test system: wild-type cells; assay: Growth inhibition by 5-fluoroorotic acid (block of de novo pyrimidine synthesis); assay type: cell-based, Salmonella; settings: 50 μg/ml; reversed by addition of 20 μg/ml uracil
From the text: It was recognized that reducing the background mutation frequency by eliminating preexisting FU^R mutants could increase the sensitivity of the assay. Since the only mechanism leading to 5-FU resistance in Salmonella involves loss of uracil phosphoribosyltransferase, a uracil salvage enzyme and product of the upp gene, it was theorized that blockage of the de novo pyrimidine synthesis and supplementation with uracil should permit growth of wild-type cells and selection against FU^R upp mutants.
It was also determined that upp mutants cannot grow in the presence of 5-fluorooroticacid and uracil, presumably due to their inability to utilize exogenous uracil. […] Frozen stocks of FU100 were prepared using cultures grown under these conditions (described in Materials and Methods) in order to produce “cleansed” working stocks with reduced background.

[10] = test system: TA100 his+
Experimental: A study was then conducted to determine the optimal concentration of the selective agent 5-FU. The growth rate was determined for cultures in MinE containing up to 8 μg/ml 5-FU.

[11] = in the presence of S9 activation (+)

SMILES	NTP Results: SC = sister chromatid exchange [1]	LD50 [2, 11]	LD50 ([2]; without S9 activation (−))	Results (5-FU assay) [3, 11]	Lowest Positive Dose [3, 11]	response in the 5-FU Assay (in words) [3]	response in the 5-FU Assay (in words) ([3]; listed as 1,2-epoxybutane)	Results (5-FU assay) ([3]; without S9 activation (−))	Lowest Positive Dose ([3]; without S9 activation (−))	NTP Results: CA = chromosome aberrations [4]	NTP Results: ML = mouse lymphoma [5]	NTP Results: SA = Salmonella [6]	NTP Results: MN = micronucleus [7]	response in the standard Ames assay (in words) [8]	effect on growth of wild-type cells [9]	5-FU concentration that significantly inhibited culture growth [10]	5-FU concentration at which cultures continued to grow (longer doubling times) ([10]; cultures in MinE, up to 8 μg/ml 5-FU, data not shown)
CCC1CO1 (stereo not shown) [1,2-Epoxybutane]	+	>5000 µg/mL	>5000 µg/mL	Pos	500 µg/mL	positive compounds in non-toxic concentrations	easy to detect	Pos	8.9 µg/mL	+	+	+	−	weak or equivocal response			
O=C(O)c1[nH]c(=O)[nH]c(=O)c1F [5-fluorooroticacid, 5-fluoroorotic acid]															inhibited growth		
O=c1[nH]cc(F)c(=O)[nH]1 [5-FU, 5-fluorouracil]																greater than or equal to 1 μg/ml	less than or equal to 0.5 μg/ml
ClCc1ccccc1 [Benzyl Chloride]	+	>150 µg/mL	>1500 µg/mL	Pos	50 µg/mL	easy to detect		Pos	28 µg/mL	+	+	+^w		weak or equivocal response			
O=P1(N(CCCl)CCCl)NCCCO1 (stereo not shown) [Cyclophosphamide•H2O]	(SA+, CA+, SC+, MN+)	>300 µg/mL	>1500 µg/mL	Pos^w	1500 µg/mL	weak positive		Neg		(SA+, CA+, SC+, MN+)		(SA+, CA+, SC+, MN+)	(SA+, CA+, SC+, MN+)	positive			
